From patent US11186592B2, “Thiazolopyridine derivatives as adenosine receptor antagonists” (MERCK PATENT GMBH, priority 2017, dated 2021)

Legend:
Assay type in all cases: cell-based
human A2A receptor = target: T1, human A2A receptor (Homo sapiens, UniProt P29274); assay: cAMP (HTRF) functional assay, recombinant HEK293 cells expressing human A2A receptor, agonist NECA
T1 construct: expressed in transfected cells; host or cells: HEK293
Procedure: (§1) The functional activities of human A2A, A2B, A1 and A3 receptors were determined by quantification of cAMP, being the second messenger for adenosine receptors.
(§2) Cells were seeded into 384-well plates, forskolin, test compounds and agonists (CPA for A1- and IB-MECA for A3-receptor) were added. After 30 min incubation, HTRF reagents (cAMP dynamic 2, Cis Bio) were added and the cellular cAMP levels were determined using the ENVISION (Perkin Elmer) plate reader. Obtained raw data were normalized against the inhibitor control and the neural control (DMSO) and the normalized data were fitted using GeneData software.

human A2B receptor = target: T2, human A2B receptor (Homo sapiens, UniProt P29275); assay: cAMP (HTRF) functional assay, recombinant HEK293 cells expressing human A2B receptor, agonist NECA
T2 construct: expressed in transfected cells; host or cells: HEK293
T2 sequence (P29275 1-332): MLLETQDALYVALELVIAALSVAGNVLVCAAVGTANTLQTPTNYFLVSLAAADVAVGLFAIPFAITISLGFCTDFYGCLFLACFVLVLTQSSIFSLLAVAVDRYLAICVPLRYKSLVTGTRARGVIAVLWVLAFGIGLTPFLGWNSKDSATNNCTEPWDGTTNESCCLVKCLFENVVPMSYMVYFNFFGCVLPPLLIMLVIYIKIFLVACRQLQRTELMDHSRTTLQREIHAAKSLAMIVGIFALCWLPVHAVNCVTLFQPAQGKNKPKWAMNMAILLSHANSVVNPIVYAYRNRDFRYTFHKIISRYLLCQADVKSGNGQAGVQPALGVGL
Procedure: as §1, §2

human A1 receptor = target: T3, human A1 receptor (Homo sapiens, UniProt P30542); assay: cAMP (HTRF) functional assay, recombinant CHO cells expressing human A1 receptor, forskolin + agonist CPA
T3 construct: expressed in transfected cells; host or cells: CHO
T3 sequence (P30542 1-326): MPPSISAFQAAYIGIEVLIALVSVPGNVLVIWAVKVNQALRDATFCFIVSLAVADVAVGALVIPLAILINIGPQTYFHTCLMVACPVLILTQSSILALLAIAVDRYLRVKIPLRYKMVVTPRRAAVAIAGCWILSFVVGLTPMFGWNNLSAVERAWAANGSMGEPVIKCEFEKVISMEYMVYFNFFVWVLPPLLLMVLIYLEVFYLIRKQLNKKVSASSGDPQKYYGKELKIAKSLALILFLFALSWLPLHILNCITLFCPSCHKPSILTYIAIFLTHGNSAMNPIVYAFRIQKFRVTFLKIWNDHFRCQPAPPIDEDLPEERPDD
Procedure: as §1
(§3) For human A1 and A3 receptors, recombinant CHO cells, expressing either A1 or A3-receptor, were used. As both receptors couple to Gi proteins, the assay protocol was adapted:
as §2

human A3 receptor = target: T4, human A3 receptor (Homo sapiens, UniProt P0DMS8); assay: cAMP (HTRF) functional assay, recombinant CHO cells expressing human A3 receptor, forskolin + agonist IB-MECA
T4 construct: expressed in transfected cells; host or cells: CHO
T4 sequence (P0DMS8 1-318): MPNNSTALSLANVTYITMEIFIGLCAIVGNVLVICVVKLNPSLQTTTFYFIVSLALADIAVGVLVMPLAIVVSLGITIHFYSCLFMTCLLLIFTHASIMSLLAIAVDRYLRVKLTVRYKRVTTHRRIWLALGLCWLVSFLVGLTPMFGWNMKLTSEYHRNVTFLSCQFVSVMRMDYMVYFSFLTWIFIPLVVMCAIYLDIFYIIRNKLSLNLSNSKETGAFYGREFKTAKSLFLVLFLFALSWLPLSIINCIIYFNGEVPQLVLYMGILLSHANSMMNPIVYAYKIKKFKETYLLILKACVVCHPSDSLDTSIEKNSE
Procedure: as §1, §3, §2

T1 sequence (P29274 whole entry): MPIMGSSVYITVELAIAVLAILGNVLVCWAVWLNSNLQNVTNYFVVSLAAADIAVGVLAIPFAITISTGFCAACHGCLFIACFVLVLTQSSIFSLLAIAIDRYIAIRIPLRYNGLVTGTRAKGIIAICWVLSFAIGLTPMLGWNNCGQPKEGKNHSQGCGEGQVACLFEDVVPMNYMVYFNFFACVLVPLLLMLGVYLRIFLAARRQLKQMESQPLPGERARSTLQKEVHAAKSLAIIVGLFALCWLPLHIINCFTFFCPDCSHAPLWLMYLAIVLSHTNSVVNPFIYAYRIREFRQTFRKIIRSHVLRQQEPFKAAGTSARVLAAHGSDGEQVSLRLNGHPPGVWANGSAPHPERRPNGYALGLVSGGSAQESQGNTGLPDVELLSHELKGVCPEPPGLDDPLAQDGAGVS

With `COc1ncc(N2CCOCC2)c2sc(NC(=O)N3CC[C@@]4(CCOC4)C3)nc12` [compound 18, (5R)-N-[4-methoxy-7-(morpholin-4-yl)-[1,3]thiazolo[4,5-c]pyridin-2-yl]-2-oxa-7-azaspiro[4.4]nonane-7-carboxamide] the IC50 (human A2A receptor) was under 10 nM, the IC50 (human A2B receptor) was under 1000 nM and the IC50 (human A1 receptor) was over 1000 nM. For the same compound, the IC50 (human A3 receptor) was over 1000 nM.

`COc1ncc(-c2cnn(C)c2)c2sc(NC(=O)N3CCC(C)(O)CC3)nc12` [compound 21, 4-Hydroxy-4-methyl-piperidine-1-carboxylic acid [4-methoxy-7-(1-methyl-1H-pyrazol-4-yl)-thiazolo[4,5-c]pyridin-2-yl]-amide] was tested, and the IC50 (human A2A receptor) was under 10 nM, the IC50 (human A2B receptor) was under 100 nM and the IC50 (human A1 receptor) was under 1000 nM. For the same compound, the IC50 (human A3 receptor) was under 1000 nM.

Work on `COCc1ccc(C(=O)Nc2nc3c(OC)ncc(C4CCOCC4)c3s2)cc1` [compound 23, 4-Methoxymethyl-N-[4-methoxy-7-(tetrahydro-pyran-4-yl)-thiazolo[4,5-c]pyridin-2-yl]-benzamide] yielded an IC50 (human A2A receptor) of under 10 nM, an IC50 (human A2B receptor) of under 100 nM and an IC50 (human A1 receptor) of under 1000 nM. The IC50 (human A3 receptor) was over 1000 nM.

`COCCn1cc(C(=O)Nc2nc3c(OC)ncc(C4CCOCC4)c3s2)cn1` [compound 29, 1-(2-Methoxy-ethyl)-1H-pyrazole-4-carboxylic acid [4-methoxy-7-(tetrahydro-pyran-4-yl)-thiazolo[4,5-c]pyridin-2-yl]-2-amide] gave an IC50 (human A2A receptor) of under 10 nM, an IC50 (human A2B receptor) of under 100 nM and an IC50 (human A1 receptor) of under 1000 nM. The IC50 (human A3 receptor) was under 1000 nM.

For `COc1ncc(C2CCOCC2)c2sc(NC(=O)N3CCC(C)(O)CC3)nc12` [compound 30, 4-Hydroxy-4-methyl-piperidine-1-carboxylic acid [4-methoxy-7-(tetrahydro-pyran-4-yl)-thiazolo[4,5-c]pyridin-2-yl]-amide], the IC50 (human A2A receptor) was under 10 nM, the IC50 (human A2B receptor) was under 100 nM and the IC50 (human A1 receptor) was under 1000 nM. It also gave an IC50 (human A3 receptor) of over 1000 nM.

Work on `COc1ncc(-c2ccccc2)c2sc(NC(=O)N3CCC4(CCCOC4)C3)nc12` (stereo not drawn) [compound 52, 7-Oxa-2-aza-spiro[4.5]decane-2-carboxylic acid (4-methoxy-7-phenyl-thiazolo[4,5-c]pyridin-2-yl)-amide] yielded an IC50 (human A2A receptor) of under 10 nM, an IC50 (human A2B receptor) of under 100 nM and an IC50 (human A1 receptor) of under 1000 nM. It also gave an IC50 (human A3 receptor) of over 1000 nM.

`COc1ncc(-c2ccccc2)c2sc(NC(=O)N3CCC4(CCOCC4)C3)nc12` [compound 53, 8-Oxa-2-aza-spiro[4.5]decane-2-carboxylic acid (4-methoxy-7-phenyl-thiazolo[4,5-c]pyridin-2-yl)-amide] showed an IC50 (human A2A receptor) of under 10 nM, an IC50 (human A2B receptor) of under 100 nM and an IC50 (human A1 receptor) of over 1000 nM. The IC50 (human A3 receptor) was over 1000 nM.

`COc1ncc(-c2ccccc2)c2sc(NC(=O)N3CCC4(CCOC4)C3)nc12` (stereo not drawn) [compound 54, 2-Oxa-7-aza-spiro[4.4]nonane-7-carboxylic acid (4-methoxy-7-phenyl-thiazolo[4,5-c]pyridin-2-yl)-amide] gave an IC50 (human A2A receptor) of under 10 nM, an IC50 (human A2B receptor) of under 100 nM and an IC50 (human A1 receptor) of under 1000 nM. The IC50 (human A3 receptor) was over 1000 nM.

`COc1ncc(-c2ccccc2)c2sc(NC(=O)c3ccc(C(=O)N(C)C)cc3)nc12` [compound 58, N-(4-Methoxy-7-phenyl-thiazolo[4,5-c]pyridin-2-yl)-N′,N′-dimethyl-terephthalamide] gave an IC50 (human A2A receptor) of under 10 nM, an IC50 (human A2B receptor) of under 10 nM and an IC50 (human A1 receptor) of under 1000 nM. For the same compound, the IC50 (human A3 receptor) was over 1000 nM.

`COc1ncc(-c2cnn(C)c2)c2sc(NC(=O)N3CCC4(CCOC4)C3)nc12` (stereo not drawn) [compound 82, 2-Oxa-7-aza-spiro[4.4]nonane-7-carboxylic acid [4-methoxy-7-(1-methyl-1H-pyrazol-4-yl)-thiazolo[4,5-c]pyridin-2-yl]-amide] showed an IC50 (human A2A receptor) of under 10 nM, an IC50 (human A2B receptor) of under 100 nM and an IC50 (human A1 receptor) of over 1000 nM. The IC50 (human A3 receptor) was over 1000 nM.

Compound `COc1ncc(C2CCOCC2)c2sc(NC(=O)c3ccc(C(=O)N(C)C)cc3)nc12` [compound 113, N-[4-Methoxy-7-(tetrahydro-pyran-4-yl)-thiazolo[4,5-c]pyridin-2-yl]-N′,N′-dimethyl-terephthalamide] has an IC50 (human A2A receptor) of under 10 nM, an IC50 (human A2B receptor) of under 100 nM and an IC50 (human A1 receptor) of over 1000 nM. It also gave an IC50 (human A3 receptor) of over 1000 nM.

For `COc1ncc(-c2cnn(C)c2)c2sc(NC(=O)c3cnc(C)o3)nc12` [compound 130, 2-Methyl-oxazole-5-carboxylic acid [4-methoxy-7-(1-methyl-1H-pyrazol-4-yl)-thiazolo[4,5-c]pyridin-2-yl]-amide], the IC50 (human A2A receptor) was under 10 nM, the IC50 (human A2B receptor) was under 100 nM and the IC50 (human A1 receptor) was under 1000 nM. The IC50 (human A3 receptor) was over 1000 nM.

`COc1ncc(N2CC3(CCCO3)C2)c2sc(NC(=O)c3cnn(C)c3)nc12` [compound 156, 1-Methyl-1H-pyrazole-4-carboxylic acid [4-methoxy-7-(5-oxa-2-aza-spiro[3.4]oct-2-yl)-thiazolo[4,5-c]pyridin-2-yl]-amide] was tested, and the IC50 (human A2A receptor) was under 100 nM, the IC50 (human A2B receptor) was under 100 nM and the IC50 (human A1 receptor) was over 1000 nM. The IC50 (human A3 receptor) was under 1000 nM.

Compound `COc1ncc(N2CCOCC2)c2sc(NC(=O)C3CC3)nc12` [compound 167, Cyclopropanecarboxylic acid (4-methoxy-7-morpholin-4-yl-thiazolo[4,5-c]pyridin-2-yl)-amide] has an IC50 (human A2A receptor) of under 10 nM, an IC50 (human A2B receptor) of under 100 nM and an IC50 (human A1 receptor) of over 1000 nM. The IC50 (human A3 receptor) was over 1000 nM.

Work on `COc1ncc(N2CCOCC2)c2sc(NC(=O)c3cnn(C)c3)nc12` [compound 171, 1-Methyl-1H-pyrazole-4-carboxylic acid (4-methoxy-7-morpholin-4-yl-thiazolo[4,5-c]pyridin-2-yl)-amide] yielded an IC50 (human A2A receptor) of under 10 nM, an IC50 (human A2B receptor) of under 100 nM and an IC50 (human A1 receptor) of under 1000 nM. The IC50 (human A3 receptor) was under 1000 nM.

Compound `COc1ncc(-c2cnn(C)c2)c2sc(NC(=O)N3CC[C@]4(CCOC4)C3)nc12` [compound 173, (S)-2-Oxa-7-aza-spiro[4.4]nonane-7-carboxylic acid [4-methoxy-7-(1-methyl-1H-pyrazol-4-yl)-thiazolo[4,5-c]pyridin-2-yl]-amide] has an IC50 (human A2A receptor) of under 10 nM, an IC50 (human A2B receptor) of under 100 nM and an IC50 (human A1 receptor) of over 1000 nM. For the same compound, the IC50 (human A3 receptor) was over 1000 nM.

Work on `COc1ncc(-c2cnn(C)c2)c2sc(NC(=O)C3CC3)nc12` [compound 179, Cyclopropanecarboxylic acid [4-methoxy-7-(1-methyl-1H-pyrazol-4-yl)-thiazolo[4,5-c]pyridin-2-yl]-amide] yielded an IC50 (human A2A receptor) of under 10 nM, an IC50 (human A2B receptor) of under 100 nM and an IC50 (human A1 receptor) of over 1000 nM. It also gave an IC50 (human A3 receptor) of under 1000 nM.

Work on `COc1ncc(-c2ccccc2)c2sc(NC(=O)c3cnc(C)o3)nc12` [compound 186, 2-Methyl-oxazole-5-carboxylic acid (4-methoxy-7-phenyl-thiazolo[4,5-c]pyridin-2-yl)-amide] yielded an IC50 (human A2A receptor) of under 10 nM, an IC50 (human A2B receptor) of under 100 nM and an IC50 (human A1 receptor) of under 1000 nM. It also gave an IC50 (human A3 receptor) of under 1000 nM.

`COc1ncc(-c2ccccc2)c2sc(NC(=O)C3CC3)nc12` [compound 187, Cyclopropanecarboxylic acid (4-methoxy-7-phenyl-thiazolo[4,5-c]pyridin-2-yl)-amide] was tested, and the IC50 (human A2A receptor) was under 10 nM, the IC50 (human A2B receptor) was under 100 nM and the IC50 (human A1 receptor) was under 1000 nM. The IC50 (human A3 receptor) was under 1000 nM.

`COc1ncc(-c2ccccc2)c2sc(NC(=O)c3cnc(C)s3)nc12` [compound 190, 2-Methyl-thiazole-5-carboxylic acid (4-methoxy-7-phenyl-thiazolo[4,5-c]pyridin-2-yl)-amide] was tested, and the IC50 (human A2A receptor) was under 10 nM, the IC50 (human A2B receptor) was under 100 nM and the IC50 (human A1 receptor) was under 1000 nM. It also gave an IC50 (human A3 receptor) of under 1000 nM.

With `COc1ncc(-c2cccc(F)c2)c2sc(NC(=O)N3CCC4(CCOCC4)C3)nc12` [compound 194, 8-Oxa-2-aza-spiro[4.5]decane-2-carboxylic acid [7-(3-fluoro-phenyl)-4-methoxy-thiazolo[4,5-c]pyridin-2-yl]-amide] the IC50 (human A2A receptor) was under 10 nM, the IC50 (human A2B receptor) was under 100 nM and the IC50 (human A1 receptor) was under 1000 nM. For the same compound, the IC50 (human A3 receptor) was over 1000 nM.
